A value given as a limit tells only on which side of the number the result lay.

Sequence of USP30 (Q70CQ3 57-517): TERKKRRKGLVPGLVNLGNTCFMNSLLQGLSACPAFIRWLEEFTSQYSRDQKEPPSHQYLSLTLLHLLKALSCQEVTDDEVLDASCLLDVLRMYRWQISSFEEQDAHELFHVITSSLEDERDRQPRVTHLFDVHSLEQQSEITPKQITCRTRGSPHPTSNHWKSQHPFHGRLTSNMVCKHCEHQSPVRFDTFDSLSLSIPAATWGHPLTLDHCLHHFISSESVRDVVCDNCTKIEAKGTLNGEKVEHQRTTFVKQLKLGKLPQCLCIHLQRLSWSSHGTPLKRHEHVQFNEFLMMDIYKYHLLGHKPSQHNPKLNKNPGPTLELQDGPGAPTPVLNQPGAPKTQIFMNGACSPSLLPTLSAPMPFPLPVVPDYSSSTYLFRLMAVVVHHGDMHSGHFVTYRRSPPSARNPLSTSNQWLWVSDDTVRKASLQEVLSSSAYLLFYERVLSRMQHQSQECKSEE

The test has as its target USP30 (Homo sapiens (Human), UniProt Q70CQ3). As to the kind of experiment: USP30 biochemical FP or FI IC50 assay. Conditions: read-out: IC50 range. Here is the method: USP30 Biochemical IC50 Assay
Dilution plates were prepared at 21 times the final concentration (2100 μM for a final concentration of 100 μM) in 50% DMSO in a 96-well polypropylene V-bottom plate (Greiner #651201). A typical 8-point dilution series would be 100, 30, 10, 3, 1, 0.3, 0.1, 0.03 μM final. Reactions were performed in duplicate in black 384 well plates (small volume, Greiner 784076) in a final reaction volume of 21 μl. Either 1 μl of 50% DMSO or diluted compound was added to the plate. USP30 was diluted in reaction buffer (40 mM Tris, pH 7.5, 0.005% Tween 20, 0.5 mg/ml BSA, 5 mM—beta-mercaptoethanol) to the equivalent of 0.05 μl/well and 10 μl of diluted USP30 was added to the compound. Enzyme and compound were incubated for 30 min at room temp. Reactions were initiated by the addition of 50 nM of TAMRA labelled peptide linked to ubiquitin via an iso-peptide bond as fluorescence polarisation substrate. Reactions were read immediately after addition of substrate and following a 2 hr incubation at room temperature. Readings were performed on a Pherastar Plus (BMG Labtech). λ Excitation 540 nm; λ Emission 590 nm.
USP30 Biochemical Fluorescence Intensity IC50 Assay
Dilution plates were prepared at 21 times the final concentration (2100 μM for a final concentration of 100 μM) in 50% DMSO in a 96-well polypropylene V-bottom plate (Greiner #651201). A typical 8-point dilution series would be 100, 30, 10, 3, 1, 0.3, 0.1, 0.03 μM final. Reactions were performed in duplicate in black 384 well plates (small volume, Greiner 784076) in a final reaction volume of 21 μl.
Either 1 μl of 50% DMSO or diluted compound was added to the plate. USP30 was diluted in reaction buffer (40 mM Tris, pH 7.5, 0.005% Tween 20, 0.5 mg/ml BSA, 5 mM—beta-mercaptoethanol) to the equivalent of 0.001 μl/well and 10 μl of diluted USP30 was added to the compound. Enzyme and compound were incubated for 30 min at room temp. Reactions were initiated by the addition of Ubiquitin-Rhodamine 110 (U-555; Boston Biochem) at a final concentration of 100 nM. Reactions were read immediately after addition of substrate and following a 2 h incubation at room temperature. Readings were performed on a Pherastar Plus (BMG Labtech). λ Excitation 487 nm; λ Emission 535 nm.
With `CO[C@@H]1CCN(c2ccc(C(=O)N[C@H]3CN(C#N)C[C@@H]3C)c(F)c2)C1` (racemic) [Example 92, N-((trans)-1-cyano-4-methylpyrrolidin-3-yl)-2-fluoro-4-((R)-3-methoxypyrrolidin-1-yl)benzamide], the IC50 (usually the concentration needed to halve the response being measured) was 0.1 to 1 µM. The same measure for `C[C@@H]1[C@H](NC(=O)c2ccc(-c3ccc(F)cc3)cn2)CCN1C#N` (racemic) [Example 174, N-((cis)-1-cyano-2-methylpyrrolidin-3-yl)-5-(4-fluorophenyl)picolinamide]: 0.1 to 1 µM; for `C[C@H]1CN(C#N)C[C@@H]1NC(=O)c1ccc(N2CCOCC2)c(Cl)c1` (racemic) [Example 175, 3-chloro-N-((trans)-1-cyano-4-methylpyrrolidin-3-yl)-4-morpholinobenzamide]: less than 0.1 µM; for `N#CN1C[C@H](NC(=O)c2cnc(-c3ccccc3Cl)s2)[C@@H](O)C1` (relative stereo) [Example 93, 2-(2-chlorophenyl)-N-((trans)-1-cyano-4-hydroxypyrrolidin-3-yl) thiazole-5-carboxamide]: less than 0.1 µM. On to `Cn1cc(-c2ccc(C(=O)N[C@@H]3CN(C#N)C[C@@H]3C3CC3)cc2F)cn1` (relative stereo) [Example 177, N-((cis)-1-cyano-4-cyclopropylpyrrolidin-3-yl)-3-fluoro-4-(1-methyl-1H-pyrazol-4-yl)benzamide], for which the IC50 was in the range of 0.1 to 1 µM.

For `CO[C@H]1CN(C#N)C[C@@H]1N(C)C(=O)c1ccc(-c2cnn(C)c2)cc1` (relative stereo) [Example 178, N-((trans)-1-cyano-4-methoxypyrrolidin-3-yl)-N-methyl-4-(1-methyl-1H-pyrazol-4-yl)benzamide], the IC50 lay within 0.1 to 1 µM. The same measure for `N#CN1C[C@H]2CCN(C(=O)c3cc(-c4ccccc4)n[nH]3)[C@H]2C1` (stereo in doubt) [Example 246, 1-(3-phenyl-1H-pyrazole-5-carbonyl)hexahydropyrrolo[3,4-b]pyrrole-5(1H)-carbonitrile]: 0.1 to 1 µM; for `N#CN1CC[C@@H](NC(=O)c2ccc(-c3ccccc3)cn2)C1` [Example 1, (R)—N-(1-cyanopyrrolidin-3-yl)-5-phenylpicolinamide]: 0.1 to 1 µM; for `COc1cc(C(=O)N[C@@H]2CCN(C#N)C2)ccc1-c1cnn(C)c1` [Example 2, (R)—N-(1-cyanopyrrolidin-3-yl)-3-methoxy-4-(1-methyl-1H-pyrazol-4-yl)benzamide]: less than 0.1 µM. Take `N#CN1CCC(NC(=O)c2ccc(-c3ccccc3Cl)cc2)C1` (centres unmarked) [Example 3, 2′-chloro-N-(1-cyanopyrrolidin-3-yl)-[1,1′-biphenyl]-4-carboxamide]: the IC50 is less than 0.1 µM. With `CN(Cc1ccccc1)c1ccc(C(=O)NC2CCN(C#N)C2)cn1` (centres unmarked) [Example 4, 6-(benzyl(methyl)amino)-N-(1-cyanopyrrolidin-3-yl)nicotinamide] the figure was 0.1 to 1 µM.

With `N#CN1CC[C@@H](NC(=O)N2CC(c3ccccc3)C2)C1` [Example 5, (R)—N-(1-cyanopyrrolidin-3-yl)-3-phenylazetidine-1-carboxamide], the IC50 fell in the range of 0.1 to 1 µM. The same measure for `C[C@@H]1CN(c2ccc(C(=O)N[C@@H]3CCN(C#N)C3)cc2F)C[C@H](C)O1` [Example 6, N—((R)-1-cyanopyrrolidin-3-yl)-4-((cis)-2,6-dimethylmorpholino)-3-fluorobenzamide]: 0.1 to 1 µM; for `N#CN1CCC(NC(=O)c2ccc(N3CCC(Oc4ccccc4)CC3)nc2)C1` (centres unmarked) [Example 22, N-(1-cyanopyrrolidin-3-yl)-6-(4-phenoxypiperidin-1-yl)nicotinamide]: 0.1 to 1 µM. `N#CN1CCC(NC(=O)c2ccnc(N3CCc4ccccc4C3)c2)C1` (centres unmarked) [Example 27, N-(1-cyanopyrrolidin-3-yl)-2-(3,4-dihydroisoquinolin-2(1H)-yl)isonicotinamide]: the IC50 lay within 0.1 to 1 µM. With `N#CN1CC[C@@H](NC(=O)c2cccc(-c3ccccc3)n2)C1` [Example 29, (R)-N-(1-cyanopyrrolidin-3-yl)-6-phenylpicolinamide] the figure was 0.1 to 1 µM; with `N#CN1CC[C@@H](NC(=O)c2cc(-c3ccccc3)ccn2)C1` [Example 30, (R)-N-(1-cyanopyrrolidin-3-yl)-4-phenylpicolinamide], 0.1 to 1 µM; with `N#CN1CC[C@@H](NC(=O)c2ccc(N3CCOCC3)c(F)c2)C1` [Example 32, (R)-N-(1-cyanopyrrolidin-3-yl)-3-fluoro-4-morpholinobenzamide], 0.1 to 1 µM. With `N#CN1CC[C@@H](NC(=O)c2cc(-c3ccccc3)no2)C1` [Example 33, (R)-N-(1-cyanopyrrolidin-3-yl)-3-phenylisoxazole-5-carboxamide] the figure was 0.1 to 1 µM; with `N#CN1CC[C@@H](NC(=O)c2cc(-c3ccncc3)on2)C1` [Example 34, (R)-N-(1-cyanopyrrolidin-3-yl)-5-(pyridin-4-yl)isoxazole-3-carboxamide], 0.1 to 1 µM; with `N#CN1CC[C@@H](NC(=O)c2ccc(-c3ccccc3)cc2)C1` [Example 35, (R)-N-(1-cyanopyrrolidin-3-yl)-[1,1′-biphenyl]-4-carboxamide], less than 0.1 µM. With `N#CN1CC[C@@H](NC(=O)c2cnc(-c3ccccc3Cl)s2)C1` [Example 37, (R)-2-(2-chlorophenyl)-N-(1-cyanopyrrolidin-3-yl)thiazole-5-carboxamide] the figure was less than 0.1 µM; with `N#CN1CC[C@@H](NC(=O)c2ccc(-c3ccncc3Cl)cc2)C1` [Example 38, (R)-4-(3-chloropyridin-4-yl)-N-(1-cyanopyrrolidin-3-yl)benzamide], less than 0.1 µM. Take `COc1cc(C(=O)N[C@@H]2CCN(C#N)C2)ccc1-c1ccncc1Cl` [Example 39, (R)-4-(3-chloropyridin-4-yl)-N-(1-cyanopyrrolidin-3-yl)-3-methoxybenzamide]: the IC50 was less than 0.1 µM. Consider `COc1cc(C(=O)N[C@@H]2CCN(C#N)C2)ccc1-c1ccnc(C)c1` [Example 40, (R)-N-(1-cyanopyrrolidin-3-yl)-3-methoxy-4-(2-methylpyridin-4-yl)benzamide], for which the IC50 was less than 0.1 µM. `COc1cc(C(=O)N[C@@H]2CCN(C#N)C2)ccc1-c1ccnc(N2CCOCC2)c1` [Example 41, (R)-N-(1-cyanopyrrolidin-3-yl)-3-methoxy-4-(2-morpholinopyridin-4-yl)benzamide]: the IC50 is 0.1 to 1 µM. The same measure for `N#CN1CC[C@@H](NC(=O)c2ccc(F)c(-c3ccncc3)c2)C1` [Example 42, (R)-N-(1-cyanopyrrolidin-3-yl)-4-fluoro-3-(pyridin-4-yl)benzamide]: 0.1 to 1 µM.

`Cn1cc(-c2cc(C(=O)N[C@@H]3CCN(C#N)C3)ccc2F)cn1` [Example 43, (R)-N-(1-cyanopyrrolidin-3-yl)-4-fluoro-3-(1-methyl-1H-pyrazol-4-yl)benzamide]: the IC50 was in the range of 0.1 to 1 µM. On to `Cn1cc(-c2ccc(C(=O)N[C@@H]3CCN(C#N)C3)cc2)cn1` [Example 44, (R)-N-(1-cyanopyrrolidin-3-yl)-4-(1-methyl-1H-pyrazol-4-yl)benzamide], for which the IC50 was less than 0.1 µM. The same measure for `Cn1cc(-c2cnc(C(=O)N[C@@H]3CCN(C#N)C3)nc2)cn1` [Example 45, (R)-N-(1-cyanopyrrolidin-3-yl)-5-(1-methyl-1H-pyrazol-4-yl)pyrimidine-2-carboxamide]: 0.1 to 1 µM; for `N#CN1CC[C@@H](NC(=O)N2CCC(c3ccccc3)C2)C1` (stereo partly drawn) [Example 46, N-((R)-1-cyanopyrrolidin-3-yl)-3-phenylpyrrolidine-1-carboxamide]: 0.1 to 1 µM; for `N#CN1CC[C@H](NC(=O)c2ccc(-c3ccncc3)cc2)C1` [Example 47, (S)-N-(1-cyanopyrrolidin-3-yl)-4-(pyridin-4-yl)benzamide]: 1 to 10 µM. The same measure for `N#CN1CC[C@H](NC(=O)c2cccc(-c3ccccc3)n2)C1` [Example 48, (S)-N-(1-cyanopyrrolidin-3-yl)-6-phenylpicolinamide]: 1 to 10 µM; for `CN(C(=O)c1ccc(-c2ccncc2Cl)cc1)[C@@H]1CCN(C#N)C1` [Example 49, (R)-4-(3-chloropyridin-4-yl)-N-(1-cyanopyrrolidin-3-yl)-N-methylbenzamide]: 0.1 to 1 µM; for `CN(C(=O)Nc1cn2ccccc2n1)[C@@H]1CCN(C#N)C1` [Example 50, (R)-1-(1-cyanopyrrolidin-3-yl)-3-(imidazo[1,2-a]pyridin-2-yl)-1-methylurea]: 0.1 to 1 µM.

(Values after patent publication US10343992B2, “1-cyano-pyrrolidine compounds as USP30 inhibitors” (MISSION THERAPEUTICS LIMITED, priority 2015, dated 2019).)
